US20080146540A1, “Methods of diagnosis and treatment for asthma, allergic rhinitis and other respiratory diseases based on haplotype association” (priority 2003, published 2008)

What was measured:
mice = settings: cited from earlier work
IL-1β = settings: lipopolysaccharide challenge; cited from earlier work
[1] = tested on: subjects with Parkinson disease; assay: Rhinitis episodes in subjects with Parkinson disease on CEP-1347; assay type: in vivo, human
Text: In a study examining for association of the MAP3K9 gene and Allergic Rhinitis, deCODE found an association of certain MAP3K9 haplotypes (Table 7A) with Allergic Rhinits, with RR of approximately 1.4 for each allele carried (p<0.05). The risk was highest in a subgroup of subjects with Allergic Rhinitis alone (RR of 1.6 and p=0.005). Additional support that the MAP3K9 gene may play a role in Allergic Rhinits comes from a study conducted on subjects with Parkinson disease. […] Indeed, none of the subjects in the 50 mg dose group (n=198) developed rhinitis whereas 6 subjects in the placebo group (n=191) developed rhinitis (p=0.01).

sE-Selectin = assay: Phase II clinical study CEP-1347-201: sE-Selectin change from baseline; assay type: in vivo, human; settings: for sE Selection Change from Baseline at Week 8, LS Mean: ANCOVA
Text: Results from an ANCOVA (analysis of covariance) including treatment group as a factor and the baseline value as a covariate are presented in Table 24.

asthma patients [2] = assay: Phase II clinical study CEP-1347-201: asthma exacerbations and airway remodeling; assay type: in vivo, human
Text: However, given the near normal lung function of the population evaluated in this exploratory Phase 2 trial, positive trends can only be established with respect to the effects of CEP-1347 in asthma due to lack of statistical significance in certain aspects of the study. Furthermore, the trial patient numbers for at-risk haplotype carriers were not large enough to achieve significant power to adequately test the effect on these haplotype positive patients. The asthma patients enrolled into CEP-1347-201 were well treated with near normal lung function and any apparent lack of treatment effect could be attributed, in part, to deficiencies in study design as opposed to a lack of CEP-1347 effect.
The term “airway remodeling” in bronchial asthma refers to structural changes that occur in conjunction with, or because of, chronic airway inflammation. Airway remodeling results in alterations in the airway epithelium, lamina propria, and submucosa, leading to thickening of the airway wall. Another common attribute of asthmatic airways is eosinophilia. Eosinophils expressing the CCR3 chemokine receptor are drawn from pulmonary circulation primarily by Eotaxin/CCL11, which is overexpressed in asthmatic respiratory membrane epithelial cells, fibroblasts, and smooth muscle cells. […]

asthma patients [3] = assay: Phase II clinical study CEP-1347-201: spirometry FEV/FVC; assay type: in vivo, human; settings: patients with near normal lung function at baseline
Text: The overall mean baseline percent predicted FEV1 (forced expiratory […] in 1 second) and FEV1 values for the study were 96% and 2.9 liters, respectively.

For `CCSCc1ccc2c(c1)c1c3c(c4c5cc(CSCC)ccc5n5c4c1n2C1CC(O)(C(=O)OC)C5(C)O1)CNC3=O` (centres unmarked) [CEP-1347], the “protection from LPS-induced death” value (mice) is given as “provides protection”, the “production of IL-1β by mice after LPS challenge” value (IL-1β) is given as “reduces production” and the “subjects who developed rhinitis” value ([1]; 50 mg dose group (n=198), 6 subjects in placebo group (n=191), p=0.01) is given as “none”. The “AR episodes (rhinitis episodes)” value ([1]; 50 mg twice daily (bid), N=198, placebo 6 (N=191), p = 0.01) was 0, the “sE Selection Change from Baseline at Week 8, LS Mean” value (from here on “sE Selection Change from Baseline”) (sE-Selectin; 10 mg BID, p 0.12) was −1.49 and the “sE Selection Change from Baseline” value (sE-Selectin; 25 mg BID, p 0.005) was −3.18. For the same compound, the “sE Selection Change from Baseline” value (sE-Selectin; 50 mg BID, p 0.26) was −1.00, the sE-Selection levels (sE-Selectin; CEP-1347 treated groups compared to placebo, p=0.02) was “significantly lower” and the asthma exacerbations (asthma patients [2]; 50 mg BID group, positive trend only) was “reduction of exacerbations”. For the same compound, the “progression of airway remodeling” value (asthma patients [2]; in particular with the 25 mg BID dose (FIG. 13)) was “Positive effects” and the “FEV/FVC (ANCOVA)” value (asthma patients [3]) was “no clear treatment related trends or statistically significant changes”.
